Measured values reported in patent publication US9926581B2, “Fagopyritol synthase genes and uses thereof” (Cornell Research Foundation, Inc., priority 2002, dated 2018).
Entries after “also recorded” stand apart in the source; their conditions may differ.

Assays:
Conditions in all cases: for activity as galactosyl acceptor: UDP-Gal as galactosyl donor, 20 mM substrates, 5 mM MnCl2, 30° C.
[1] = tested on: GmGolS; assay: Galactinol synthase / fagopyritol synthase enzyme assay with recombinant GmGolS; type: biochemical, Glycine max
Procedure: (§1) Both the crude soluble protein extracts from E. coli and the purified GolS recombinant proteins were used in enzyme assays. […] In galactinol synthase assays, UDP-Gal was substituted with 20 mM galactinol as the galactosyl donor. Assays were run at 30° C. for 30 to 300 minutes. Reactions were stopped by addition of 50 μL of 100% ethanol.
Both crude soluble protein extracts from E. coli containing the recombinant GmGolS protein and purified recombinant GmGolS protein were used in enzyme assays. […] Assays were run at 30° C. for 30 to 300 minutes. Reactions were stopped by addition of 50 μL of 100% ethanol.
(§2) The reactions were stopped after 3 hours with the addition of 50 μL of 100% EtOH.
(§3) To determine the concentration of Mn^2+ in which the enzymes had the greatest activity, multiple assays were completed varying the amount of Mn^2+. […] After 3 hours, the reactions were stopped with the addition of 50 μL of 100% EtOH.
(§4) The reactions were completed using 1-2 μg of enzyme in a 50 μL solution containing 20 mM galactosyl acceptor, 20 mM UDP-galactose, 50 mM HEPES, pH 7.0, 2 mM DTT, 5 mM Mn^2+ at 30° C. After 3 hours, the reactions were stopped with the addition of 50 of 100% EtOH.
(§5) All samples from the assays were analyzed by gas chromatography. All were prepared for analysis in the same way. […] The solution was then filtered using NanoSep tubes and 100 μL was transferred to a silation vial. The samples were then dried under nitrogen and desiccated over P2O5 overnight. The dried samples were then derivitized with 100 μL of TMSI:pyridine (1:1, v/v) and then analyzed by gas chromatography.

[2] = tested on: FeGolS-1; assay: Fagopyritol synthase / galactinol synthase enzyme assay with recombinant FeGolS-1 (products by gas chromatography); type: biochemical, Fagopyrum esculentum
Procedure: Both the crude soluble protein extracts from E. coli and the purified GolS recombinant proteins were used in enzyme assays. […] In galactinol synthase assays, UDP-Gal was substituted with 20 mM galactinol as the galactosyl donor. Assays were run at 30° C. for 30 to 300 minutes. Reactions were stopped by addition of 50 μL of 100% ethanol. […] The reactions were stopped after 3 hours with the addition of 50 μL of 100% EtOH. […] To determine the concentration of Mn^2+ in which the enzymes had the greatest activity, multiple assays were completed varying the amount of Mn^2+. […] After 3 hours, the reactions were stopped with the addition of 50 μL of 100% EtOH. […] After 3 hours, the reactions were stopped with the addition of 50 of 100% EtOH. All samples from the assays were analyzed by gas chromatography. All were prepared for analysis in the same way. […] The solution was then filtered using NanoSep tubes and 100 μL was transferred to a silation vial. The samples were then dried under nitrogen and desiccated over P2O5 overnight. The dried samples were then derivitized with 100 μL of TMSI:pyridine (1:1, v/v) and then analyzed by gas chromatography.

[3] = target: FeGolS-2 (Fagopyrum esculentum, UniProt Q7XZ07); assay: Fagopyritol synthase / galactinol synthase enzyme assay with recombinant FeGolS-2 (products by gas chromatography); type: biochemical
Sequence of FeGolS-2 (Q7XZ07 entry or part of it): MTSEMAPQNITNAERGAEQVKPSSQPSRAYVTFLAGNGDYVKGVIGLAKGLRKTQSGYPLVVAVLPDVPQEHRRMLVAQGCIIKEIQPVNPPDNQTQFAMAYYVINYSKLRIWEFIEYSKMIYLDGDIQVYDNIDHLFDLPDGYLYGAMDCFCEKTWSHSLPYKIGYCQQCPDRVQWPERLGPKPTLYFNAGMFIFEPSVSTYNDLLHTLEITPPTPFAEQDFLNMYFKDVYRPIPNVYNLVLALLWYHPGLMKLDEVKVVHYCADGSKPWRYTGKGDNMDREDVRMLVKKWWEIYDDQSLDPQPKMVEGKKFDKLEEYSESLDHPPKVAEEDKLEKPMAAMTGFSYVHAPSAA
Procedure: as §1, §2, §3, §4, §5

[4] = 20 mM galactosyl donor instead of UDP-Gal

Compound	activity as galactosyl acceptor [1]	activity as galactosyl acceptor [2]	further results
COC1[C@@H](O)[C@@H](O)C(O)[C@H](O)[C@H]1O (stereo partly drawn) [D-ononitol, 1D-4-O-methyl-myo-inositol]	not active	–	–
COC1[C@H](O)[C@H](O)C(O)[C@H](O)[C@H]1O (stereo partly drawn) [D-bornesitol, 1D-1-O-methyl-myo-inositol]	reduced activity	can be used as galactosyl acceptors	activity as galactosyl acceptor [3]: can be used as galactosyl acceptors; activity as galactosyl acceptor ([1]; listed as bornesitol): can be used as galactosyl acceptors
COC1[C@@H](O)[C@H](O)C(O)[C@H](O)[C@H]1O (some centres unmarked) [sequoyitol, 5-O-methyl-myo-inositol]	not active	–	–
OC1C(O)C(O)C(O)C(O)C1O [L-chiro-inositol]	active; also recorded: can be used as galactosyl acceptors	can be used as galactosyl acceptors	–
OC1C(O)C(O)C(O)C(O)C1O [D-chiro-Inositol, D-chiro-inositol]	–	can be used as galactosyl acceptors	activity as galactosyl acceptor ([2]; listed as D-chiro-inositol): catalyzed the biosynthesis of fagopyritol B1; activity as galactosyl acceptor ([1]; listed as D-chiro-inositol): catalyzed the biosynthesis of fagopyritol B1, but not fagopyritol A1; also recorded: catalyzed the biosynthesis of fagopyritol B1; also recorded: can be used as galactosyl acceptors
CO[C@H]1[C@H](O)[C@@H](O)[C@H](O)[C@H](O)[C@H]1O [L-quebrachitol, 1L-2-O-methyl-chiro-inositol]	not active	–	–
OC1C(O)C(O)C(O)C(O)C1O (stereo not drawn) [epi-inositol]	no activity	–	–
O[C@H]1[C@H](O)[C@@H](O)[C@H](O)[C@@H](O)[C@@H]1O [scyllo-inositol]	reduced activity; also recorded: can be used as galactosyl acceptors	can be used as galactosyl acceptors	activity as galactosyl acceptor [3]: can be used as galactosyl acceptors
O[C@H]1[C@H](O)[C@@H](O)[C@H](O)[C@@H](O)[C@H]1O [myo-Inositol, myo-inositol]	catalyzed the biosynthesis of galactinol; also recorded: can be used as galactosyl acceptors	catalyzed the biosynthesis of galactinol; also recorded: can be used as galactosyl acceptors	activity as galactosyl acceptor [3]: catalyzed the biosynthesis of galactinol; also recorded: can be used as galactosyl acceptors
OC[C@H]1O[C@H](OC2[C@@H](O)[C@H](O)C(O)[C@H](O)[C@@H]2O)[C@H](O)[C@@H](O)[C@H]1O (some centres unmarked) [Galactinol, galactinol]	–	–	activity as galactosyl donor [2, 4]: Neither FeGolS-1 nor FeGolS-2 was active; activity as galactosyl donor [3, 4]: Neither FeGolS-1 nor FeGolS-2 was active; activity as galactosyl donor ([1]; galactosyl donor instead of UDP-Gal): not active
CO[C@H]1[C@H](O)[C@@H](O)[C@@H](O)[C@H](O)[C@@H]1O [D-Pinitol, 1D-3-O-methyl-chiro-inositol]	not active	–	–
